This note sets out measurements from US20250032576A1, “CNP Therapy” (BIOMARIN PHARMACEUTICAL INC., priority 2021, published 2025).

Each structure is given as a SMILES string.

Data set [1] concerns children aged 3 to 60 months. Further details: species or system human. The conditions noted are these: in vivo, sc. An excerpt:
See also PCT Application No. PCT/US22/73605.

For data set [2] the following is noted: human, in vivo.
Procedure: (§1) In an ongoing Phase II study of CNP therapy in children, a group of patients age 3 to 6 months (cohort 3) were administered CNP (BMN111) at a dose of 30 μg/kg daily subcutaneously, and changes in annualized growth volume, changes in height, and skull morphology were measured.
Data set [3] in a line: clinical. The following applies: human, in vivo; for Tmax: Median [range] Tmax; for Cmax: Mean (SD) Cmax.
Procedure: as §1
The nature of data set [4]: clinical. The conditions noted are these: human, in vivo. An excerpt: Studies from rodent pups, growing lambs and children support the view that circulating levels of CNP products in plasma (CNP and NTproCNP) are sourced largely from growth plate or closely related tissues (Espiner 2018, supra). Measurement of any possible impact on endogenous proCNP production of administered CNP 1-37 Pro Gly (which strongly cross-reacts with CNP but not NTproCNP assay) is therefore only feasible using plasma concentrations of NTproCNP adjusted for age and sex (SDS). […] It is instructive to compare these dynamic changes in CNP with those found in short non Ach children of similar age starting daily doses of Human Growth Hormone (HGH) (Olney, et al. Clin Endocrinol (Oxf) 85:561-568, 2016). In that setting, similar inflections in AGV were associated with increase in NTproCNP (mean 11 pmol/L, delta 22% at day 21) in contrast to the concurrent fall of NTproCNP (approximately 6 pmol/L, range 3-11 pmol/L, delta-12%) at Day 29 during 15-30 μg/kg/d Vosoritide treatment in Cohorts 3 and 4. […] These kinetic responses could relate to the estimated times (approximately 20-22 days) (Sansone et al., J Pediatr Orthop 29:61-67, 2009) for recruited chondrocytes to traverse the respective zones of the expanding growth plate and populate the primary spongiosa.
This temporal constraint may relate to the early growth spurt observed in many of the children studied. […]

In general, Tmax refers to the time from dosing to the highest level. One may read the Cmax as the maximum level reached in the sampled fluid or tissue. For orientation: half-life means the time in which the quantity being followed falls by half. Low readings indicate rapid decline, high ones slow decline. Usually AUC(0-t) stands for the area under the concentration-time curve up to a stated or last time point. A low value points to low exposure. On to `CC[C@H](C)[C@@H]1NC(=O)[C@H](CCCNC(=N)N)NC(=O)[C@H](CC(=O)O)NC(=O)[C@H](CC(C)C)NC(=O)[C@H](CCCCN)NC(=O)[C@H](CC(C)C)NC(=O)CNC(=O)[C@H](Cc2ccccc2)NC(=O)[C@@H](NC(=O)CNC(=O)[C@H](CCCCN)NC(=O)[C@H](CO)NC(=O)[C@H](CC(C)C)NC(=O)CNC(=O)[C@H](CCCCN)NC(=O)[C@H](CCCCN)NC(=O)[C@H](CC(N)=O)NC(=O)[C@H](C)NC(=O)CNC(=O)[C@H](CCCCN)NC(=O)[C@H](Cc2ccc(O)cc2)NC(=O)[C@H](CCCCN)NC(=O)[C@H](CCCNC(=N)N)NC(=O)[C@H](C)NC(=O)[C@H](CC(N)=O)NC(=O)[C@@H]2CCCN2C(=O)[C@H](Cc2c[nH]cn2)NC(=O)[C@H](CCC(=O)O)NC(=O)[C@H](CCC(N)=O)NC(=O)CNC(=O)[C@@H]2CCCN2)CSSC[C@@H](C(=O)O)NC(=O)CNC(=O)[C@H](CC(C)C)NC(=O)CNC(=O)[C@H](CO)NC(=O)[C@H](CCSC)NC(=O)[C@H](CO)NC(=O)CNC1=O` [Vosoritide], for which the overall adverse-event profile entry in data set [1] is recorded as “generally mild”. Moreover, in data set [2] (15 ug/kg), the “Median [range] Tmax” value was 15.0 [7.0, 31.0] min. Also, in data set [2] (30 ug/kg), the “Mean (SD) Cmax” value is given as 13,500 (6770) pg/mL. Also, the “Mean (SD) AUC0-t” value in data set [2] (sc, 30 ug/kg) is 323,000 (129,000) pg-min/mL. Moreover, the Tmax in “clinical [3]” (15 ug/kg) is 15 min; in “clinical [3]” (30 ug/kg), 14 min; in the data set “clinical [3]” (sc, 15 ug/kg), 15 min. Further, the Cmax is 10.1 ng/mL in the data set “clinical [3]” (30 ug/kg); 4.43 ng/mL in “clinical [3]” (sc, 15 ug/kg); 14.5 ng/mL in “clinical [3]” (sc, 30 ug/kg). Further, the half-life in the data set “clinical [3]” (sc, 15 ug/kg, Mean (SD) t1/2) came out at 21.7 min; in “clinical [4]”, 28 min. The molecule further had an AUC(0-t) in “clinical [3]” (sc, 30 ug/kg, Mean (SD) AUC0-t) of 9.12 ng·h/mL.
